Where no end group is shown, it is not given here.
Tests used:
Chlamydophila felis = settings: previous study of the authors; cited from earlier work
Description: (§1) With regard to the other chlamydial species tested, only Chlamydophila pneumoniae and Chlamydophila felis were sensitive to 10 μg/mL of SMAP-29 and 80 μg/mL of SMAP-29/Bac7, respectively.

[1] = test system: Simkania negevensis reference strain Z (ATCC VR-1471); assay: Inhibition of Simkania negevensis infectivity (reduction of inclusions) after pre-incubation of elementary bodies with peptide; type: cell-based; settings: purified EBs incubated with peptide 2 h at room temperature in PBS/SPG pH 7.4; tenfold dilutions 100 to 0.01 μg/mL; LLC-MK2 cells, 72 h at 35°C; inclusions by immunofluorescence; untreated control mean 74 IFU/mL; means of three experiments in triplicate
Description: The cathelicidin peptides—PG-1 from pig, Bac7 (1–35) from cattle, SMAP-29 from sheep, LL-37 from human, BMAP-27, and BMAP-28 from cattle—were chemically synthesized, purified, characterized, and provided as lyophilized peptide, as previously reported. The reference strain Z of S. negevensis (American Type Culture Collection VR-1471) was grown in LLC-MK2 cells in 6-large well plates and elementary bodies (EBs) were purified by use of sucrose gradients, resuspended in sucrose-phosphate-glutamic acid buffer (SPG) pH 7.4 (75 g sucrose, 87 mL 0.2 M Na2HPO4, 13 mL 0.2 M NaH2PO4, 0.72 g L-glutamic acid), and frozen in aliquots at −80°C.
Stock solutions of each peptide at 1 g/liter were prepared in phosphate-buffered saline (PBS), pH 7.4, and stored frozen in 20-μL aliquots at −80°C until used. To determine the lowest peptide concentration required to achieve ≥50% reduction of inclusions with respect to untreated control, the various peptides were diluted tenfold from 200 to 0.02 μg/mL, in a volume of 100 μL with PBS in polypropylene tubes. An equal volume of 5 × 10^5 inclusion-forming units (IFU)/mL of purified S. negevensis EBs in SPG medium was then added, so obtaining a final cathelicidin concentration ranging from 100 to 0.01 μg/mL in a mixture of PBS and SPG at a final pH 7.4. EBs untreated with cathelicidins were used as a control. After incubation at room temperature for 2 h, a 200 μL aliquot was added to 800 μL chlamydial growth medium and inoculated onto LLC-MK2 cells grown in 24-well plates in a 5% CO2 atmosphere. After centrifugation at 800 × g for 1 h at 33°C and incubation at 35°C for 72 h, the cultures were fixed and stained for the presence of inclusions by immunofluorescence using an in-house rabbit polyclonal hyperimmune serum raised against S. negevensis. The number of IFU per coverslip was counted in 40 microscopic fields using a ZEISS UV microscope at a magnification of ×200.
All tests were performed in triplicate and in three independent experiments.

[2] = test system: Chlamydia trachomatis strains; settings: previous study of the authors; cited from earlier work
Description: as §1

Substance | concentration to which Chlamydophila felis was sensitive (Chlamydophila felis) [µg/mL] | lowest peptide concentration required to achieve ≥50% reduction of inclusions with respect to untreated control [1] [µg/mL] | concentration with inhibitory effect on Chlamydia trachomatis strains [2] [µg/mL]
Bac7: cathelicidin peptide Bac7 (1–35) from cattle, chemically synthesized (RRIRPRPPRLPRPRPRPLPFPRPGPRPIPRPLPFP; Bactenecin 7; UniProt P19661 131-165, looked up, fragment) | 80 | 0.1 | –
LL-37 | – | > 100 | > 80
PG-1: cathelicidin peptide from pig, chemically synthesized; native protegrin-1 has two intramolecular disulfide bonds (RGGRLCYCRRRFCVCVGR; not fully specified (bridges); ends and bridges not checked; also: native protegrin-1 has two intramolecular disulfides, pairing not given here; UniProt P32194 131-148, looked up) | – | 1 | –

From paper PMC3133470, “Activity of Cathelicidin Peptides against Simkania negevensis” (International Journal of Peptides, 2011)
